Experimental findings from US20040248953A1, “3-Arylsulfanyl and 3-heteroarylsulfanyl substituted benzo[b]thiophenes as therapeutic agents” (priority 2003, published 2004) are described below.

Each structure is given as a SMILES string.

The target in the assay is T1, PI3Kγ (Homo sapiens, UniProt P48736).
T1 construct: HA; made in house; host or cells: Spodoptera frugiperda (Sf9) cells, baculovirus coinfection
T1 sequence (P48736 whole entry, species assumed): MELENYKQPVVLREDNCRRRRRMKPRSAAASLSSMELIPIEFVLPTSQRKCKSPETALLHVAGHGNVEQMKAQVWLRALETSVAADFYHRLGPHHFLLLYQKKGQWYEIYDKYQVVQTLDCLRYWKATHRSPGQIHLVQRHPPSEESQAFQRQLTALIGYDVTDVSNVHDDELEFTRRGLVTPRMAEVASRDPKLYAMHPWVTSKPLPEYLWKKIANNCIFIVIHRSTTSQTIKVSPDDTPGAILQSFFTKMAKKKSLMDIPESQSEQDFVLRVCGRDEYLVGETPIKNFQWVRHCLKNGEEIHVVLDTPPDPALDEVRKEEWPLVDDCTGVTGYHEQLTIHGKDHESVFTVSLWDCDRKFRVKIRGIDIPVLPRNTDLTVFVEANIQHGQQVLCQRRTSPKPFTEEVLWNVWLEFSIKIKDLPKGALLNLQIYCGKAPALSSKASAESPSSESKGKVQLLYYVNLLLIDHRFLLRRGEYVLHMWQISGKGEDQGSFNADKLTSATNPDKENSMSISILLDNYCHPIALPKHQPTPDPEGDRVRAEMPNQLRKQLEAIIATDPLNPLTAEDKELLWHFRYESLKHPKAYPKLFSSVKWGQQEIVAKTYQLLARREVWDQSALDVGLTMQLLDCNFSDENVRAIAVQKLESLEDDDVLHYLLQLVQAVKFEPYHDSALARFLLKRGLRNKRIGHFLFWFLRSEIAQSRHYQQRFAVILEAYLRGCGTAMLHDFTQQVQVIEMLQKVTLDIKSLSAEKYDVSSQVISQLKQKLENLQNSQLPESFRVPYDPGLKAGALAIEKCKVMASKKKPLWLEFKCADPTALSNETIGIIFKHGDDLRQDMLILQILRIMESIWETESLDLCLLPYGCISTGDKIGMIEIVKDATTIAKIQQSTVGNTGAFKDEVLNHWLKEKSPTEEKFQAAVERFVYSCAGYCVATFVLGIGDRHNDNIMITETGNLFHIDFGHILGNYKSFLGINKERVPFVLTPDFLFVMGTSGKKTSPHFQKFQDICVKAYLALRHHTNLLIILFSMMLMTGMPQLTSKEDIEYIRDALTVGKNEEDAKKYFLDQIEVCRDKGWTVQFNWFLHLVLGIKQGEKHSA
T1 sequence (Q8WYR1 whole entry partner, species assumed): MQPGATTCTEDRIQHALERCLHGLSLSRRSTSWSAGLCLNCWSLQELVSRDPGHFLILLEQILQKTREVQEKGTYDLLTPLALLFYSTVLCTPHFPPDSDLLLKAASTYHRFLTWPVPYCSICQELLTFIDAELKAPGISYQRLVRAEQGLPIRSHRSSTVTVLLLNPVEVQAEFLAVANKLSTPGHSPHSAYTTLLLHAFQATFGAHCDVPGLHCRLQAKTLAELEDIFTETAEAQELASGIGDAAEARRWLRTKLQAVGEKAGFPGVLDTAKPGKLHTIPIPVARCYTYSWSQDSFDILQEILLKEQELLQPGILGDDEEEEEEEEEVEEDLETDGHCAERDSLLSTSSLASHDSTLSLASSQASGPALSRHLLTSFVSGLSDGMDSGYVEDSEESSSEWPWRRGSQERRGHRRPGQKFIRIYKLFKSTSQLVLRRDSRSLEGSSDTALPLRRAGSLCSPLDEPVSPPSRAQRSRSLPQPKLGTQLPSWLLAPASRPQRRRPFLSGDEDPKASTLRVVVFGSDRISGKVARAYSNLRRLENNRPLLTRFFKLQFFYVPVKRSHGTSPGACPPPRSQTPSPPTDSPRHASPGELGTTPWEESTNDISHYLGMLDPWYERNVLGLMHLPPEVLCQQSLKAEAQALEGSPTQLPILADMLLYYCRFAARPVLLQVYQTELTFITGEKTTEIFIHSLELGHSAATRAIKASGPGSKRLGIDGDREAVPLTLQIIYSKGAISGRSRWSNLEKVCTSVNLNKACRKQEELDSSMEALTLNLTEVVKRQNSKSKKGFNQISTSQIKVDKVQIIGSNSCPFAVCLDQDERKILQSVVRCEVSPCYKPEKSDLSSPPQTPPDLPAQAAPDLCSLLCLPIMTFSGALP
Put plainly: PI3Kγ in vitro kinase assay (32P-ATP, PIP2 lipid micelles, filter plate). The assay is classed as biochemical. The conditions noted are these: purified recombinant p101/p110γ protein with G protein β1/γ2 subunits; 20 μM ATP; 25 μM PIP2; 20 minutes at room temperature. On the procedure: Spodtera frugiperda cells, grown in ESF921 media, were coinfected with baculovirus expressing a glu-tagged p101 and baculovirus expressing an HA-tagged p110γ, at a 3:1 ratio of p101 baculovirus to p110γ baculovirus. Sf9 cells were grown to 1×10^7 total cells/mL in 10 L bioreactors and harvested 48-72 hours post infection. Samples of infected cells were then tested for expression of p101/p110γ PI3 kinase by immunoprecipitation and Western Blot analysis methods (see below). To purify PI3Kγ, 4 volumes of room temperature hypotonic lysis buffer (1 mM MgCl2, 1 mM DTT, 5 mM EGTA, 1 mM Pefabloc, 0.5 μM aprotinin, 5 μM leupeptin, 2 μM pepstatin, 5 μM E64, pH 8) per gram of cell paste, was poured onto frozen cell pellets with stirring, then lysed in a nitrogen “bomb” at 400 psi (599HC […], Parr Instrument Co, Moline, Ill.). NaCl was added to 150 mM, and sodium cholate was added to 1% and mixed for another 45 minutes. The lysates were clarified by centrifugation for 25 minutes at 14,000 rpm. The lysates were then loaded over anti-glu-linked Protein-G Sepaharose beads (Covance Research Products, Richmond, Calif.) using 20 mL resin/50 g cell paste. The column was washed with 15 volumes of wash buffer (1 mM DTT, 0.2 mM EGTA, 1 mM Pefabloc, 0.5 μM aprotinin, 5 μM leupeptin, 2 μM pepstatin, 5 μM E64, 150 mM NaCl, 1% sodium cholate, pH 8). PI3Kγ was eluted with 6 column volumes of wash buffer that contain 100 μg/mL of a peptide that competes for binding of the glu tag. The column fractions with the eluted protein (determined by taking OD280 readings) were collected and dialyzed in 0.2 mM EGTA, 1 mM DTT, 1 mM Pefabloc, 5 μM leupeptin, 0.5% sodium cholate, 150 mM NaCl, and 50% glycerol, pH 8. The fractions were stored at -80° C. until further use. Spodtera frugiperda cells were coinfected with baculovirus expressing a glu-tagged G protein β1 and baculovirus expressing a […], at a 1:1 ratio of glu-tagged G protein β1 baculovirus to G protein β2 baculovirus. Sf9 cells are grown in 10 L bioreactors and harvested 48-72 hours post infection. Samples of infected cells were tested for G protein β1/β2 expression by Western Blot analysis, as described below. Cell lysates were homogenized and loaded onto a column of glu-tagged beads as in Biological Example 1 and competed off the column with a glu peptide and processed as described in Biological Example 1. The inhibitory properties of the compounds in Table 1 were assayed in an in vitro PI3K assay. In a 96-well polypropylene plate, each well was spotted with […] of 50 times the desired final concentration of compound in DMSO. Purified recombinant p101/p110γ protein (0.03 μg; 2.7 nM) and G protein β1/γ2 subunits (0.09 μg; 57.7 nM) for each reaction was combined in the assay buffer (30 mM HEPES, 100 mM NaCl, 1 mM EGTA, and 1 mM DTT). ATP and [γ-^32P-ATP] (0.09 μCi) were added to this mixture so that the final ATP concentration in the reaction was 20 μM. Lipid micelles were formed by sonicating phosphatidylinositol4,5-diphosphate (PIP2), phosphatidylethanolamine (PE), and Na-cholate in the assay buffer for 10 minutes, adding MgCl2 and incubating on ice for 20 minutes, for final concentrations of 25 μM PIP2, 300 μM PE, 0.02% Na-cholate, and 10 mM MgCl2 in the reaction. The reactions were started by adding equal volumes lipid and enzyme mixture in a total volume of 50 μL, allowed to run for 20 minutes at room temperature, and stopped with 100 μL 75 mM H3PO4. The lipid product was transferred to a glass fiber filter plate and washed with 75 mM H3PO4 several times. The presence of radioactive lipid product (PIP3) was measured by adding Wallac Optiphase mix to each well and counting in a Wallac 1450 Trilux plate reader (PerkinElmer Life Sciences Inc., Boston, Mass. 02118). The IC50 for each compound tested is reported in μM in Table 1: […]
Broadly, the IC50 is the point on the concentration scale where inhibition reaches its midpoint. For the compound `COc1cc2c(Sc3ccc(N(C)C)cc3)c(C(=O)Nc3nnn[nH]3)sc2cc1C` [Example 53, 3-(4-Dimethylamino-phenylsulfanyl)-5-methoxy-6-methyl-benzo[b]thiophene-2-carboxylic acid(1H-tetrazol-5-yl)-amide], the IC50 turned out to be 390 nM. Consider `COc1cc2c(SCCc3ccccc3)c(C(=O)Nc3nnn[nH]3)sc2cc1C` [Example 54], for which the IC50 came out at 50 nM. For the compound `COc1cc2c(Sc3ccc(C(=O)O)cc3)c(C(=O)Nc3nnn[nH]3)sc2cc1C` [Example 55, 4-[5-Methoxy-6-methyl-2-(1H-tetrazol-5-ylcarbamoyl)-benzo[b]thiophen-3-ylsulfanyl]-benzoic acid], the 50% inhibitory concentration (IC50) was 265 nM.

Turning to `COc1cc2c(Sc3ccc(CC(=O)O)cc3)c(C(=O)Nc3nnn[nH]3)sc2cc1C` [Example 56, {4-[5-Methoxy-6-methyl-2-(1H-tetrazol-5-ylcarbamoyl)-benzo[b]thiophen-3-ylsulfanyl]-phenyl}-acetic acid], the half-inhibitory concentration (IC50) stood at 115 nM. As for `COc1cc2c(Sc3ccc(CCC(=O)O)cc3)c(C(=O)Nc3nnn[nH]3)sc2cc1C` [Example 57, 3-{4-[5-Methoxy-6-methyl-2-(1H-tetrazol-5-ylcarbamoyl)-benzo[b]thiophen-3-ylsulfanyl]-phenyl}-propionic acid], the figure is 575 nM. The same measure for `COc1cc2sc(C(=O)Nc3nnn[nH]3)c(Sc3ccc(C(=O)O)cc3)c2cc1C` [Example 58, 4-[6-Methoxy-5-methyl-2-(1H-tetrazol-5-ylcarbamoyl)-benzo[b]thiophen-3-ylsulfanyl]-benzoic acid]: 1340 nM; for `COc1cc2sc(C(=O)Nc3nnn[nH]3)c(Sc3ccc(CC(=O)O)cc3)c2cc1C` [Example 59, {4-[6-Methoxy-5-methyl-2-(1H-tetrazol-5-ylcarbamoyl)-benzo[b]thiophen-3-ylsulfanyl]-phenyl}-acetic acid]: 1320 nM; for `COc1cc2sc(C(=O)Nc3nnn[nH]3)c(SCc3ccc(C(=O)O)cc3)c2cc1C` [Example 60, 4-[6-Methoxy-5-methyl-2-(1H-tetrazol-5-ylcarbamoyl)-benzo[b]thiophen-3-ylsulfanylmethyl]-benzoic acid]: 495 nM. The same measure for `COc1cc2sc(C(=O)Nc3nnn[nH]3)c(Sc3ccc(CC(=O)O)cc3)c2cc1OC` [Example 61, {4-[5,6-Dimethoxy-2-(1H-tetrazol-5-ylcarbamoyl)-benzo[b]thiophen-3-ylsulfanyl]-phenyl}-acetic acid]: 2610 nM; for `COc1cc2sc(C(=O)Nc3nnn[nH]3)c(Sc3ccc(CCC(=O)O)cc3)c2cc1OC` [Example 62, 3-{4-[5,6-Dimethoxy-2-(1H-tetrazol-5-ylcarbamoyl)-benzo[b]thiophen-3-ylsulfanyl]-phenyl}-propionic acid]: 2670 nM.

As to `CCOc1ccc2sc(C(=O)Nc3nnn[nH]3)c(Sc3ccc(CC(=O)O)cc3)c2c1` [Example 63, {4-[5-Ethoxy-2-(1H-tetrazol-5-ylcarbamoyl)-benzo[b]thiophen-3-ylsulfanyl]-phenyl}-acetic acid], the IC50 is 2710 nM. As for `CCOc1ccc2sc(C(=O)Nc3nnn[nH]3)c(Sc3ccc(CCC(=O)O)cc3)c2c1` [Example 64, 3-{4-[5-Ethoxy-2-(1H-tetrazol-5-ylcarbamoyl)-benzo[b]thiophen-3-ylsulfanyl]-phenyl}-propionic acid], the figure is 3620 nM; as for `COCc1cc2sc(C(=O)Nc3nnn[nH]3)c(Sc3ccccc3)c2cc1OC` [Example 65, 5-Methoxy-6-methoxymethyl-3-phenylsulfanyl-benzo[b]thiophene-2-carboxylic acid(1H-tetrazol-5-yl)-amide], 315 nM; as for `COc1cc2sc(C(=O)Nc3nn[nH]n3)c(SCc3ccc(C#N)cc3)c2cc1OC` [Example 66, 3-(4-Cyano-benzylsulfanyl)-5,6-dimethoxy-benzo[b]thiophene-2-carboxylic acid(2H-tetrazol-5-yl)-amide], 1170 nM.
